From patent US12522594B2, “2-heteroaryl-3-oxo-2,3-dihydropyridazine-4-carboxamides for the treatment of cancer” (Deutsches Krebsforschungszentrum, priority 2017, dated 2026) come the findings set out here.

Structures are written as SMILES.

What all share (format): cell-based
The target of assay [1] is T1, AHR (Homo sapiens, UniProt P35869).
T1 sequence (P35869 11-848): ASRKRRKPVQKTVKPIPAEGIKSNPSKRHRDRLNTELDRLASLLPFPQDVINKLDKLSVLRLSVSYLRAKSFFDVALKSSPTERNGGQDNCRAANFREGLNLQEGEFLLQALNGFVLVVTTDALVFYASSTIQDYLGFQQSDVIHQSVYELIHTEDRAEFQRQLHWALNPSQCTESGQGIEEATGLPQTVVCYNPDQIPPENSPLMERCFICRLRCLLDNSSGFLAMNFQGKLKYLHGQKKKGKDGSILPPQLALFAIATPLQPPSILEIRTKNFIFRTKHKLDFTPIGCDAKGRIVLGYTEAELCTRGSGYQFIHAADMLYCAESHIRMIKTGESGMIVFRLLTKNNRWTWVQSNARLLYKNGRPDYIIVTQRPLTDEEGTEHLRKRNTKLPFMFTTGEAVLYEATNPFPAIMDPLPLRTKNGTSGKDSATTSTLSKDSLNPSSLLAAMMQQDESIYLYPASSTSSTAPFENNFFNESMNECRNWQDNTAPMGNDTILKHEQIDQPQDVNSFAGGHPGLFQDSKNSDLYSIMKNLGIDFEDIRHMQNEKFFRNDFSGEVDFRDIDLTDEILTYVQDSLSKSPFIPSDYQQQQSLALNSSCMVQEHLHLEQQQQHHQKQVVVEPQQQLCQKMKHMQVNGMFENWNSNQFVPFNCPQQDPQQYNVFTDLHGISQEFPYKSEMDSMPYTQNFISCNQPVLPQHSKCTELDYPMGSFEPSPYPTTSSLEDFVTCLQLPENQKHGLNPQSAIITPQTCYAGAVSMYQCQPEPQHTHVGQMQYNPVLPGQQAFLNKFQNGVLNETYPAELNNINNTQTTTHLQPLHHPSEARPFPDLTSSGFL
Put plainly: In vitro assay 3: AHR-regulated CYP1A1 expression in human cell line (U937, qPCR, KA stimulation). As to conditions: U937 cells, 200 uM KA, 6 hours, CYP1A1 expression by qPCR; read-out: Assay 3: Hum CYP1A1 Antagonism IC50. The procedure: In Vitro Assay 3: AHR-Regulated CYP1A1 Expression in Human Cell Line
To assess the AHR inhibitory activity of the substances described in this application, the ability thereof to antagonise ligand-induced AHR gene regulation in a dose-dependent manner was quantified. For this purpose, quantitative PCR analysis was used to determine expression of the AHR-regulated gene CYP1A1 in a human monocytic U937 cell line upon stimulation with 200 uM KA in the presence and absence of AHR inhibitor. […] CYP1A1 expression was induced with 200 uM KA (positive control) in the presence or absence of the substances for 6 hours. Human U937 cells were typically incubated with eight different concentrations of the substances (1 nM, 3 nM, 10 nM, 30 nM, 100 nM, 300 nM, 1 uM and 3 uM) and analyzed in duplicate on the same microtitre plate. […] Unstimulated cells were used as the negative control. Taqman probes for human CYP1A1 (Hs01054797_g1) and human HPRT (Hs02800695_m1) were used to analyze fold expression of CYP1A1 of HPRT. Quantitation was performed on a Taqman SDS7900HT.

Assay [2] concerns the target T1, AHR. The assay is described as follows: In vitro assay 1: antagonism in human cell line (transactivation assay, U87 cells prestimulated with kynurenic acid, DRE firefly luciferase reporter). On the set-up: host or cells: U87 glioblastoma cells, stably transfected with DRE firefly luciferase and renilla reporter constructs. As to conditions: 150 uM kynurenic acid, 20 hours, read-out: Assay 1: AHR-luc Hum Antagonism IC50. The procedure, abridged:
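Antagonism measured after kynurenic acid prestimulation in U87 cells that express AHR endogenously and stably harbor a firefly luciferase gene under DRE control plus a constitutive renilla construct. Positive and negative controls served for normalization.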

The target in assay [3] is T1, AHR. The assay is described as follows: In vitro assay 2: agonism in human cell line (transactivation assay, U87 cells, DRE firefly luciferase reporter). On the set-up: host or cells: U87 glioblastoma cells, stably transfected with DRE firefly luciferase and renilla reporter constructs. As to conditions: no kynurenic acid, 20 hours, read-out: Assay 2: AHR-luc Hum Agonism IC50. The procedure, abridged: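 Agonist readout: DRE firefly luciferase, with constitutive renilla reporter, in stably transfected U87 cells expressing AHR endogenously. Normalization used positive control (300 uM kynurenic acid) and negative control.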

Turning to `Cn1cc(-n2nc(-c3ccc(C(F)(F)F)cc3)cc(C(=O)N[C@H](CO)C3CC3)c2=O)cn1` [Example 238, N-[(1S)-1-Cyclopropyl-2-hydroxyethyl]-2-(1-methyl-1H-pyrazol-4-yl)-3-oxo-6-[4-(trifluoromethyl)phenyl]-2,3-dihydropyridazine-4-carboxamide], the 50% inhibitory concentration (IC50) at AHR [1] was 14.7 nM; on AHR [2], 9.88 nM; at AHR [3] it was above 20000 nM.
For `C[C@H](CO)NC(=O)c1cc(-c2ccc(C(F)(F)F)cc2)nn(-c2cnn(C)c2)c1=O` [Example 38, (−)-N-[(2R)-1-Hydroxypropan-2-yl]-2-(1-methyl-1H-pyrazol-4-yl)-3-oxo-6-[4-(trifluoromethyl)phenyl]-2,3-dihydropyridazine-4-carboxamide] the same measures were 36.2 nM, 34.3 nM and above 20000 nM.
With `C[C@@H](CO)NC(=O)c1cc(-c2ccc(C(F)(F)F)cc2)nn(-c2cccnc2)c1=O` [Example 119, N-[(2S)-1-Hydroxypropan-2-yl]-3-oxo-2-(pyridin-3-yl)-6-[4-(trifluoromethyl)phenyl]-2,3-dihydropyridazine-4-carboxamide], the half-maximal inhibitory concentration (IC50) at AHR [1] is 5.72 nM; on AHR [2], 3.06 nM; on AHR [3] it was above 20000 nM.
For `O=C(N[C@H](CO)C(F)(F)F)c1cc(-c2ccc(Cl)cc2)nn(-c2cccnc2)c1=O` [Example 96, (+)-6-(4-Chlorophenyl)-3-oxo-2-(pyridin-3-yl)-N-[(2R)-1,1,1-trifluoro-3-hydroxypropan-2-yl]-2,3-dihydropyridazine-4-carboxamide] the same measures were 3.77 nM, 3.67 nM and above 20000 nM.
Take `Cn1cc(-n2nc(-c3ccc(C(F)(F)F)cc3)cc(C(=O)N[C@H]3CCC[C@H]3O)c2=O)cn1` [Example 204, N-[(1S,2R)-2-Hydroxycyclopentyl]-2-(1-methyl-1H-pyrazol-4-yl)-3-oxo-6-[4-(trifluoromethyl)phenyl]-2,3-dihydropyridazine-4-carboxamide]: the results for the concentration for half-maximal inhibition (IC50) on AHR [1], at AHR [2] and on AHR [3] were 1.55 nM, 1 nM and above 20000 nM, respectively.
For `O=C(NCC(O)C(F)(F)F)c1cc(-c2ccc(Cl)cc2)nn(-c2cccnc2)c1=O` (single isomer, unassigned; (+)) [Example 90, (+)-6-(4-Chlorophenyl)-3-oxo-2-(pyridin-3-yl)-N-(3,3,3-trifluoro-2-hydroxypropyl)-2,3-dihydropyridazine-4-carboxamide], the values for the IC50 at AHR [1], at AHR [2] and on AHR [3] were 40.2 nM, 21.7 nM and above 20000 nM, respectively.
The matching figures for `C[C@@H](CO)NC(=O)c1cc(-c2ccc(OC(F)(F)F)cc2)nn(-c2cnn(C)c2)c1=O` [Example 53, N-[(2S)-1-Hydroxypropan-2-yl]-2-(1-methyl-1H-pyrazol-4-yl)-3-oxo-6-[4-(trifluoromethoxy)phenyl]-2,3-dihydropyridazine-4-carboxamide]: 11.1 nM, 11.6 nM and above 20000 nM.
For `O=C(N[C@H]1CCC[C@H]1O)c1cc(-c2ccc(C(F)(F)F)cc2)nn(-c2cccnc2)c1=O` [Example 105, N-[(1S,2R)-2-Hydroxycyclopentyl]-3-oxo-2-(pyridin-3-yl)-6-[4-(trifluoromethyl)phenyl]-2,3-dihydropyridazine-4-carboxamide] the same measures were 1.86 nM, 2.37 nM and above 20000 nM.
With `Cn1cc(-n2nc(-c3ccc(Cl)cc3)cc(C(=O)N[C@H]3CCC[C@@H]3O)c2=O)cn1` [Example 49, 6-(4-Chlorophenyl)-N-[(1S,2S)-2-hydroxycyclopentyl]-2-(1-methyl-1H-pyrazol-4-yl)-3-oxo-2,3-dihydropyridazine-4-carboxamide], the IC50 at AHR [1] was 7.55 nM; at AHR [2] it was 6.5 nM; on AHR [3] it was above 20000 nM.
As to `Cn1cc(-n2nc(-c3ccc(Cl)cc3)cc(C(=O)N[C@@H]3CCC[C@]3(C)O)c2=O)cn1` (relative stereo) [Example 317, 6-(4-Chlorophenyl)-N-[(cis)-2-hydroxy-2-methylcyclopentyl]-2-(1-methyl-1H-pyrazol-4-yl)-3-oxo-2,3-dihydropyridazine-4-carboxamide], the half-maximal inhibitory concentration (IC50) on AHR [1] is 37.3 nM; on AHR [2] it was 30.3 nM; at AHR [3] it was above 20000 nM.
Turning to `Cn1cc(-n2nc(-c3ccc(C(F)(F)F)cc3)cc(C(=O)NC[C@H](O)C(F)(F)F)c2=O)cn1` [Example 37, 2-(1-Methyl-1H-pyrazol-4-yl)-3-oxo-N-[(2S)-3,3,3-trifluoro-2-hydroxypropyl]-6-[4-(trifluoromethyl)phenyl]-2,3-dihydropyridazine-4-carboxamide], the IC50 was 0.423 nM on AHR [1], 2.64 nM on AHR [2] and above 20000 nM on AHR [3].
As to `N#C[C@@H](CO)NC(=O)c1cc(-c2ccc(C(F)(F)F)nc2)nn(-c2cncc(F)c2)c1=O` [Example 341, N-[(1S)-1-Cyano-2-hydroxyethyl]-2-(5-fluoropyridin-3-yl)-3-oxo-6-[6-(trifluoromethyl)pyridin-3-yl]-2,3-dihydropyridazine-4-carboxamide], the 50% inhibitory concentration (IC50) is 102 nM on AHR [2] and above 20000 nM on AHR [3].
For `O=C(NC[C@H](O)CF)c1cc(-c2ccc(C(F)(F)F)cc2)nn(-c2cccnc2)c1=O` [Example 255, N-[(2S)-3-Fluoro-2-hydroxypropyl]-3-oxo-2-(pyridin-3-yl)-6-[4-(trifluoromethyl)phenyl]-2,3-dihydropyridazine-4-carboxamide] the same measures were 25.8 nM and above 20000 nM.
In the case of `O=C(N[C@H]1COC[C@@H]1O)c1cc(-c2ccc(OC(F)(F)F)cc2)nn(-c2cccnc2)c1=O` (single isomer, unassigned; enantiomer 1) [Example 161, N-[(trans)-4-Hydroxytetrahydrofuran-3-yl]-3-oxo-2-(pyridin-3-yl)-6-[4-(trifluoromethoxy)phenyl]-2,3-dihydropyridazine-4-carboxamide, Enantiomer 1], the IC50 was 103 nM at AHR [2] and above 20000 nM at AHR [3].
With `O=C(N[C@@H]1CCC[C@H]1O)c1cc(-c2ccc(Cl)cc2)nn(-c2cccnc2)c1=O` (relative stereo) [Example 148, 6-(4-Chlorophenyl)-N-[(trans)-2-hydroxycyclopentyl]-3-oxo-2-(pyridin-3-yl)-2,3-dihydropyridazine-4-carboxamide], the 50% inhibitory concentration (IC50) on AHR [2] was 15.3 nM; at AHR [3], above 20000 nM.
Consider `C[C@@H](CO)NC(=O)c1cc(-c2ccc(Cl)cc2)nn(-c2csc(Cl)c2)c1=O` [Example 243, 6-(4-Chlorophenyl)-2-(5-chloro-3-thienyl)-N-[(2S)-1-hydroxypropan-2-yl]-3-oxo-2,3-dihydropyridazine-4-carboxamide], for which the half-inhibitory concentration (IC50) was 11.8 nM at AHR [2] and above 20000 nM at AHR [3].
With `CCC(CO)NC(=O)c1cc(-c2ccc(C)cc2)nn(-c2cnn(C)c2)c1=O` (stereo not drawn) [Example 4, N-(1-Hydroxybutan-2-yl)-6-(4-methylphenyl)-2-(1-methyl-1H-pyrazol-4-yl)-3-oxo-2,3-dihydropyridazine-4-carboxamide], the half-maximal inhibitory concentration (IC50) is 9.52 nM on AHR [2] and above 20000 nM on AHR [3].
